Source: ChEMBL document CHEMBL4840340, “Design, synthesis, kinetic, molecular dynamics, and hypoglycemic effect characterization of new and potential selective benzimidazole derivatives as Protein Tyrosine Phosphatase 1B inhibitors” (Bioorg Med Chem, 2021)
Active and inactive are the calls of the source. The calls are words filed in the database; no cut-off is given here.

How the values were obtained:
[1] = biological target: T1, Tyrosine-protein phosphatase non-receptor type 1 (Homo sapiens) (UniProt P18031); test: Inhibition of PTP1B (unknown origin) at 20 uM using pNPP as substrate by spectrophotometric analysis
T1 sequence (whole entry): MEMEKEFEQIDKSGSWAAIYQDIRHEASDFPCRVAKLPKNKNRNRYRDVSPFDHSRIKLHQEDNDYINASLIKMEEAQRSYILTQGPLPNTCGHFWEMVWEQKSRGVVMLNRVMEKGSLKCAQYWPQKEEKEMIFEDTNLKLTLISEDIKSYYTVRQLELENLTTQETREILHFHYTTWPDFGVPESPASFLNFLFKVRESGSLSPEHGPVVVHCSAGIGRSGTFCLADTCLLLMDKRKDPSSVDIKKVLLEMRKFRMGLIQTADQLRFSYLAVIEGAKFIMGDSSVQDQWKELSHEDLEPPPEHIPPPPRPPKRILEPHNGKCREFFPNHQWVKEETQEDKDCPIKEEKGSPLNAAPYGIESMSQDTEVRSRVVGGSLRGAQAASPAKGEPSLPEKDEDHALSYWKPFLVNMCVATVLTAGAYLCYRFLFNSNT

[2] = biological target: T1, Tyrosine-protein phosphatase non-receptor type 1 (Homo sapiens); test: Mixed type inhibition of PTP1B (unknown origin) using varying levels of pNPP as substrate by Lineweaver-Burk plot analysis
[3] = system: Rattus norvegicus; test: Hypoglycemic activity in high fat diet-fed induced type 2 diabetic mellitus Wistar rat model assessed as blood glucose level at 60 mg/kg, ip by glucose tolerance test; assay type: functional
[4] = biological target: T1, Tyrosine-protein phosphatase non-receptor type 1 (Homo sapiens); test: Inhibition of PTP1B (unknown origin) at 40 uM using pNPP as substrate by spectrophotometric analysis
[5] = biological target: T1, Tyrosine-protein phosphatase non-receptor type 1 (Homo sapiens); test: Inhibition of PTP1B (unknown origin) assessed as inhibition constant for uncompetitive inhibition using pNPP as substrate by spectrophotometric analysis
[6] = biological target: T2, Tyrosine-protein phosphatase non-receptor type 1 (Homo sapiens, UniProt P18031); test: Inhibition of PTP1B (unknown origin) assessed as inhibition constant using pNPP as substrate by spectrophotometric analysis
T2 sequence (P18031 whole entry): T1 sequence (whole entry)

O=C(CSc1nc2cc(Oc3ccc4ccccc4c3)ccc2[nH]1)Nc1nccs1
inhibition [1]: inactive

O=C(CSc1nc2cc(Oc3ccc4ccccc4c3)ccc2[nH]1)Nc1ccc(C(=O)O)cc1
inhibition [2]: Active
Activity [3]: 23%
inhibition [4]: 30%
alphaKi [5]: 113 µM
Ki [6]: 35.2 µM

CCOC(=O)c1ccc(NC(=O)CSc2nc3cc(Oc4ccc5ccccc5c4)ccc3[nH]2)cc1
inhibition [1]: inactive

O=C(CSc1nc2cc(Oc3ccc4ccccc4c3)c(Cl)cc2[nH]1)Nc1ccc(C(=O)O)cc1
inhibition [2]: Active
Activity [3]: 28%
inhibition [4]: 75%
alphaKi [5]: 37.8 µM
Ki [6]: 12.6 µM

CCOC(=O)c1ccc(NC(=O)CSc2nc3cc(Oc4cccc5ccccc45)ccc3[nH]2)cc1
inhibition [1]: inactive

O=C(CSc1nc2cc(Oc3ccc4ccccc4c3)c(Cl)cc2[nH]1)Nc1nccs1
inhibition [1]: inactive

O=C(CSc1nc2cc(Oc3cccc4ccccc34)ccc2[nH]1)Nc1ccc(C(=O)O)cc1
inhibition [2]: Active
Activity [3]: 19%
inhibition [4]: 40%
alphaKi [5]: 124 µM
Ki [6]: 30.2 µM

O=C(CSc1nc2cc(Oc3cccc4ccccc34)ccc2[nH]1)Nc1nccs1
inhibition [1]: inactive

CCOC(=O)c1csc(NC(=O)CSc2nc3cc(Oc4ccc5ccccc5c4)ccc3[nH]2)n1
inhibition [1]: inactive

Cc1cc(NC(=O)CSc2nc3cc(Oc4ccc5ccccc5c4)ccc3[nH]2)on1
inhibition [1]: inactive

CCOc1cc2nc(SCC(=O)Nc3ccc(C(=O)O)cc3)[nH]c2cc1Cl
inhibition [4]: 0%

O=C(CSc1nc2cc(Oc3cccc4ccccc34)ccc2[nH]1)Nc1ccccc1C(=O)O
inhibition [2]: Active
Activity [3]: 15%
inhibition [4]: 45%
alphaKi [5]: 60.6 µM
Ki [6]: 23.3 µM
